Source: patent publication US9242996B2 (Novartis AG, priority 2013, dated 2016)
pIC50: −log10 of the molar value.

molecular target: activated ERK2 (Homo sapiens (Human), UniProt P28482); test: Activated ERK2 (20 pM) Kinase Assay (AlphaScreen, ERKtide phosphorylation); type: biochemical; conditions: 0.02 nM ERK2, 400 nM ERKtide peptide, 35 μM ATP, 30 min preincubation
Protocol: Activated ERK2 (20 pM) Kinase Assay:
The assay was carried out in 20 mM HEPES [pH 7.5], 5 mM MgCl2, 1 mM DTT, 0.01% Tween-20, 0.05% BSA using 0.02 nM ERK2, 400 nM ERKtide peptide and 35 μM ATP (all concentrations are final in the reaction) in a total volume of 10.25 μL. […] Compound dilution series were prepared in 100% DMSO. ERK2 was preincubated with compounds for 30 minutes at ambient temperature. Reaction was initiated by addition of a substrate cocktail of ERKtide peptide and ATP and was allowed to proceed for 4 hours at ambient temperature. Reaction was terminated by addition of 10 μL of a 2× stop buffer consisting of 100 mM Tris-Cl [pH 7.5], 25 mM EDTA, 0.01% Tween 20, 20 μg/mL of AlphaScreen Protein A Acceptor Beads, 20 μg/mL of Streptavidin Donor Beads (PerkinElmer, Waltham, Mass.), and 1:1000 dilution phospho-EGF Receptor (Thr669) antibody (Cat #8808, Cell Signaling Technology, Danvers, Mass.). Terminated reactions were read, after overnight incubation in the dark, on an EnVision Multilabel Plate Reader (PerkinElmer, Waltham, Mass.), with excitation and emission wavelengths set to 680 nm and 570 nm, respectively. IC50 values were determined using a four-parameter fit.

Sequence of activated ERK2 (P28482 whole entry): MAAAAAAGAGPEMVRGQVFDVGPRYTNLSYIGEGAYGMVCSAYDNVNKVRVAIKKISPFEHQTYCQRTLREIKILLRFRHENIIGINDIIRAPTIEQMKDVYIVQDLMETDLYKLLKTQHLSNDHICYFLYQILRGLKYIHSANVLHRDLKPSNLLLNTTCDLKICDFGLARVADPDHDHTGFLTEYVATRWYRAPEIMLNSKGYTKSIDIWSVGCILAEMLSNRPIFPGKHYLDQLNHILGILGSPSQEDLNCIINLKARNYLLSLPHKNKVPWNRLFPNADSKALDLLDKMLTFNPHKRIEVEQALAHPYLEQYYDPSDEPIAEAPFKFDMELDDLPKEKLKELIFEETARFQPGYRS

| SMILES | pIC50 |
| --- | --- |
| Nc1ncc([C@H]2CCC[C@@H](O)C2)nc1-c1ccc(C(=O)N[C@H](CO)c2cccc(Cl)c2)c(F)c1 (single isomer, unassigned) [Example 198] | 9.65 |
| Nc1ncc([C@H]2CCC[C@@H](O)C2)nc1-c1ccc(C(=O)N[C@H](CO)c2cccc(Cl)c2)c(F)c1 (single isomer, unassigned) [Example 199] | 9.52 |
| NC[C@@H](NC(=O)c1ccc(-c2nc(C3CCCC(O)C3)cnc2N)cc1F)c1cccc(Cl)c1 (single isomer, unassigned) [Example 367] | 9.82 |
| NC[C@@H](NC(=O)c1ccc(-c2nc(C3CCCC(O)C3)cnc2N)cc1F)c1cccc(Cl)c1 (single isomer, unassigned) [Example 368] | 10.05 |
| NC[C@@H](NC(=O)c1ccc(-c2nc(C3CCCC(O)C3)cnc2N)cc1F)c1cccc(Cl)c1 (single isomer, unassigned) [Example 370] | 9.86 |
| Nc1ncc(C2CCCC(O)C2)nc1-c1ccc(C(=O)N[C@H](CO)c2cc(F)cc(Br)c2)c(F)c1 (single isomer, unassigned) [Example 384] | 10.21 |
| Nc1ncc(C2CCCC(O)C2)nc1-c1ccc(C(=O)N[C@H](CO)c2cccc(Br)c2)c(F)c1 (single isomer, unassigned) [Example 385] | 9.91 |
| Nc1ncc(C2CCCC(O)C2)nc1-c1ccc(C(=O)N[C@H](CO)c2cccc(Cl)c2)c(F)c1 (single isomer, unassigned) [Example 391] | 9.94 |
| Nc1ncc(C2CCCC(O)C2)nc1-c1ccc(C(=O)N[C@H](CO)c2cccc(Cl)c2)c(F)c1 (single isomer, unassigned) [Example 393] | 10.12 |
| CN1C[C@@H](NC(=O)c2ccc(-c3cc(-c4cnn(C)c4)cnc3N)cc2F)[C@H](c2ccc(F)c(Cl)c2)C1 (stereo in doubt) [Example 207, trans-4-(2-amino-5-(1-methyl-1H-pyrazol-4-yl)pyridin-3-yl)-N-((3S,4R)-4-(3-chloro-4-fluorophenyl)-1-methylpyrrolidin-3-yl)-2-fluorobenzamide] | 6.37 |
| CN1C[C@H](NC(=O)c2ccc(-c3cc(-c4cnn(C)c4)cnc3N)cc2F)[C@@H](c2ccc(F)c(Cl)c2)C1 (stereo in doubt) [Example 208, trans-4-(2-amino-5-(1-methyl-1H-pyrazol-4-yl)pyridin-3-yl)-N-((3R,4S)-4-(3-chloro-4-fluorophenyl)-1-methylpyrrolidin-3-yl)-2-fluorobenzamide] | 5.13 |
| CN1C[C@@H](NC(=O)c2ccc(-c3cc(-c4cnn(C)c4)cnc3N)cc2F)[C@H](c2ccc(Cl)c(F)c2)C1 (stereo in doubt) [Example 209, trans-4-(2-amino-5-(1-methyl-1H-pyrazol-4-yl)pyridin-3-yl)-N-((3S,4R)-4-(4-chloro-3-fluorophenyl)-1-methylpyrrolidin-3-yl)-2-fluorobenzamide] | 5.48 |
| CN1C[C@H](NC(=O)c2ccc(-c3cc(-c4cnn(C)c4)cnc3N)cc2F)[C@@H](c2ccc(Cl)c(F)c2)C1 (stereo in doubt) [Example 210, trans-4-(2-amino-5-(1-methyl-1H-pyrazol-4-yl)pyridin-3-yl)-N-((3R,45)-4-(4-chloro-3-fluorophenyl)-1-methylpyrrolidin-3-yl)-2-fluorobenzamide] | 4.99 |
| C[C@]1(O)CC[C@@H](c2cnc(N)c(-c3ccc(C(=O)N[C@H](CO)c4cccc(Cl)c4)c(F)c3)n2)CC1 [Example 105, 4-(3-amino-6-((1s,4R)-4-hydroxy-4-methylcyclohexy)pyrazin-2-yl)-N-((S)-1-(3-chlorophenyl)-2-hydroxyethyl)-2-fluorobenzamide] | 8.59 |
| C[C@]1(O)CC[C@H](c2cnc(N)c(-c3ccc(C(=O)N[C@H](CO)c4cccc(Cl)c4)c(F)c3)n2)CC1 [Example 106, 4-(3-amino-6-((1r,4S)-4-hydroxy-4-methylcyclohexyl)pyrazin-2-yl)-N-((S)-1-(3-chlorophenyl)-2-hydroxyethyl)-2-fluorobenzamide] | 8.89 |
| Cc1c(-c2cnc(N)c(-c3ccc(C(=O)N[C@H](CO)c4cccc(Cl)c4)c(F)c3)c2)cnn1C [Example 133, (S)-4-(2-amino-5-(1-deuterido-methyl, 5-methyl-1H-pyrazol-4-yl)pyridin-3-yl)-N-(1-(3-chlorophenyl)-2-hydroxyethyl)-2-fluorobenzamide] | 10.73 |
| Nc1ncc(C2CCOCC2)nc1-c1ccc(C(=O)N[C@H](CO)c2ccccc2)cc1 [Example 135, (S)-4-(3-amino-6-(2,2,6,6-tetradeuterido-tetrahydro-2H-pyran-4-yl)pyrazin-2-yl)-N-(2-hydroxy-1-phenylethyl)benzamide] | 9.20 |
| Nc1ncc([C@H]2CC[C@@H](O)CC2)nc1-c1ccc(C(=O)N[C@H](CO)c2cc(F)cc(CF)c2)c(F)c1 [Example 178, 4-(3-amino-6-((1s,4R)-4-hydroxycyclohexyl)pyrazin-2-yl)-2-fluoro-N—((S)-1-(3-fluoro-5-(fluoromethyl)phenyl)-2-hydroxyethyl)benzamide] | 9.68 |
| Nc1ncc([C@H]2CC[C@H](O)[C@@H](F)C2)nc1-c1ccc(C(=O)N[C@H](CO)c2cc(F)cc(Br)c2)c(F)c1 [Example 182, 4-(3-amino-6-((1S,3S,4S)-3-fluoro-4-hydroxycyclohexyl)pyrazin-2-yl)-N—((S)-1-(3-bromo-5-fluorophenyl)-2-hydroxyethyl)-2-fluorobenzamide] | 10.29 |
| Nc1ncc([C@@H]2CC[C@@H](O)[C@H](F)C2)nc1-c1ccc(C(=O)N[C@H](CO)c2cc(F)cc(Br)c2)c(F)c1 [Example 183, 4-(3-amino-6-((1R,3R,4R)-3-fluoro-4-hydroxycyclohexyl)pyrazin-2-yl)-N—((S)-1-(3-bromo-5-fluorophenyl)-2-hydroxyethyl)-2-fluorobenzamide] | 10.24 |
| Nc1ncc([C@@H]2CC[C@H](O)[C@H](F)C2)nc1-c1ccc(C(=O)N[C@H](CO)c2cc(F)cc(Br)c2)c(F)c1 [Example 185, 4-(3-amino-6-((1R,3R,4S)-3-fluoro-4-hydroxycyclohexyl)pyrazin-2-yl)-N—((S)-1-(3-bromo-5-fluorophenyl)-2-hydroxyethyl)-2-fluorobenzamide] | 9.03 |

Continued by rising pIC50, values first:

| pIC50 | SMILES |
| --- | --- |
| 10.40 | NC[C@@H](NC(=O)c1ccc(-c2nc(C3CCCC(O)C3)cnc2N)cc1F)c1cccc(Cl)c1 (single isomer, unassigned) [Example 372] |
| 10.40 | CO[C@H]1CC[C@H](c2cnc(N)c(-c3ccc(C(=O)N[C@H](CN)c4cccc(Cl)c4)c(F)c3)n2)CC1 [Example 18, N—((S)-2-amino-1-(3-chlorophenyl)ethyl)-4-(3-amino-6-((1r,4S)-4-methoxycyclohexyl)pyrazin-2-yl)-2-fluorobenzamide] |
| 10.48 | Nc1ncc(C2CCCC(O)C2)nc1-c1ccc(C(=O)N[C@H](CO)c2cc(F)cc(Br)c2)c(F)c1 (single isomer, unassigned) [Example 386] |
| 10.51 | Nc1ncc(C2CCCC(O)C2)nc1-c1ccc(C(=O)N[C@H](CO)c2cccc(Br)c2)c(F)c1 (single isomer, unassigned) [Example 389] |
| 10.55 | CNC[C@@H](NC(=O)c1ccc(-c2nc(C3CCOCC3)cnc2N)cc1F)c1cccc(Cl)c1 [Example 176, (S)-4-(3-amino-6-(tetrahydro-2H-pyran-4-yl)pyrazin-2-yl)-N-(1-(3-chlorophenyl)-2-(methylamino)ethyl)-2-fluorobenzamide] |
| 10.58 | CNC[C@@H](NC(=O)c1ccc(-c2nc([C@H]3CC[C@H](O)[C@@H](F)C3)cnc2N)cc1F)c1cc(F)cc(Br)c1 [Example 184, 4-(3-amino-6-((1S,3S,4S)-3-fluoro-4-hydroxycyclohexyl)pyrazin-2-yl)-N—((S)-1-(3-bromo-5-fluorophenyl)-2-(methylamino)ethyl)-2-fluorobenzamide] |
| 10.64 | Nc1ncc([C@H]2CC[C@H](O)CC2)nc1-c1ccc(C(=O)N[C@H](CO)c2cc(F)cc(CF)c2)c(F)c1 [Example 177, 4-(3-amino-6-((1r,4S)-4-hydroxycyclohexyl)pyrazin-2-yl)-2-fluoro-N—((S)-1-(3-fluoro-5-(fluoromethyl)phenyl)-2-hydroxyethyl)benzamide] |
| 10.68 | NC[C@@H](NC(=O)c1ccc(-c2nc(C3CCOCC3)cnc2N)cc1F)c1cccc(Cl)c1 [Example 174, (S)—N-(2-amino-1-(3-chlorophenyl)ethyl)-4-(3-amino-6-(tetrahydro-2H-pyran-4-yl)pyrazin-2-yl)-2-fluorobenzamide] |
| 10.92 | NC[C@@H](NC(=O)c1ccc(-c2nc(C3CCOCC3)cnc2N)cc1F)c1cc(F)cc(Cl)c1 [Example 181, (S)—N-(2-amino-1-(3-chloro-5-fluorophenyl)ethyl)-4-(3-amino-6-(tetrahydro-2H-pyran-4-yl)pyrazin-2-yl)-2-fluorobenzamide] |
| 11.17 | NC[C@@H](NC(=O)c1ccc(-c2nc(C3CCOCC3)cnc2N)cc1F)c1cc(F)cc(Br)c1 [Example 180, (S)—N-(2-amino-1-(3-bromo-5-fluorophenyl)ethyl)-4-(3-amino-6-(tetrahydro-2H-pyran-4-yl)pyrazin-2-yl)-2-fluorobenzamide] |
| 11.21 | NC[C@@H](NC(=O)c1ccc(-c2nc(C3CCOCC3)cnc2N)cc1F)c1cc(F)cc(I)c1 [Example 179, (S)—N-(2-amino-1-(3-fluoro-5-iodophenyl)ethyl)-4-(3-amino-6-(tetrahydro-2H-pyran-4-yl)pyrazin-2-yl)-2-fluorobenzamide] |
